For assay [1], the system named is ACTH-omas. Also noted: method as in PMID 17280594. As to conditions: previous data; cited from earlier work.
Assay [2] has as its system p-Akt. The assay is described as follows: Akt phosphorylation by western blot in GH-omas. It is filed as cell-based, human. As to conditions: 100 nM, 8 minutes, p-Akt/total Akt vs vehicle (100%), n = 4. The procedure: (§1) Pituitary adenoma specimens were dispersed into single cells by enzymatic and mechanical disruption and cultured onto tissue culture plates in serum containing medium, as previously described. Briefly, pituitary samples were resected by endoscopic transsphenoidal surgery and transferred to sterile cold (4°C) culture medium (S-MEM, Gibco, Madrid, Spain) supplemented with 0.1% BSA, 0.01% L-glutamine, 1% antibiotic-antimycotic solution, and 2.5% HEPES. Samples were minced under sterile conditions into 1–2 mm^3 pieces. Some pieces were stored at −80°C for posterior RNA isolation and, when possible, the remaining tissue samples were washed and incubated in 30 mL S-MEM medium supplemented 0.3% trypsin (Beckson, Dickinson and Company, Sparks, MD, USA) in a spinner flask (Bellco Glass, Vineland, NJ, USA) for 2 h of gentle shaking at 37°C and then, incubation was continued for another 5 min in presence of 1 mg of DNAse I (Roche, Mannheim, Germany). Dispersed cells were decanted by centrifugation and then, by repeated aspiration into a smoothtipped glass Pasteur pipette. Cells suspensions were washed once in 4.5 g/L glucose containing DMEM medium (Gibco, Madrid, Spain) supplemented with 0.1% BSA, 0.01% L-glutamine, 1% antibiotic-antimycotic solution, and 2.5% HEPES. […]
On the technique in general: Immunoblotting shows a protein as a band on a membrane.

Assay [3] relates to ACTH-omas. The assay is described as follows: cell viability of ACTH-oma primary cultures, peptide treatment. To be noted: 100 nM, 24 h, alamar-blue, n = 2–8. It is filed as cell-based, human. As to the method:
as §1, with “pipette.” for “pipette. Cells suspensions were washed once in 4.5 g/L glucose containing DMEM medium (Gibco, Madrid, Spain) supplemented with 0.1% BSA, 0.01% L-glutamine, 1% antibiotic-antimycotic solution, and 2.5% HEPES.”
(§2) As previously reported, cell viability was estimated using alamar-blue reagent (10,000 cells/well-plate; Biosource International, Camarillo, CA, USA)[30][50][52]. […] Reduction of alamar-blue reagent was quantified exciting at 560 nm and reading at 590 nm using the FlexStation III system (Molecular Devices, Sunnyvale, CA, USA). […]
(Resazurin is reduced to fluorescent resorufin, in cell work by metabolically active cells.)

Assay [4] has as its system pituitary adenoma cells. Put plainly: cell viability in all pituitary adenoma subtypes, peptide treatment. It is filed as cell-based, human. To be noted: 100 nM, 24-, 48- and/or 72-h, alamar-blue. As to the method: as §1, with “pipette.” for “pipette. Cells suspensions were washed once in 4.5 g/L glucose containing DMEM medium (Gibco, Madrid, Spain) supplemented with 0.1% BSA, 0.01% L-glutamine, 1% antibiotic-antimycotic solution, and 2.5% HEPES.”
as §2

The test system of assay [5] is ACTH-omas. The assay is described as follows: ACTH secretion from ACTH-oma primary cultures. As to conditions: 100 nM; 24 h; ELISA; % of vehicle; n = 3–9. It is filed as cell-based, human. As to the method: Pituitary adenoma specimens were dispersed into single cells by enzymatic and mechanical disruption and cultured onto tissue culture plates in serum containing medium, as previously described. Briefly, pituitary samples were resected by endoscopic transsphenoidal surgery and transferred to sterile cold (4°C) culture medium (S-MEM, Gibco, Madrid, Spain) supplemented with 0.1% BSA, 0.01% L-glutamine, 1% antibiotic-antimycotic solution, and 2.5% HEPES. Samples were minced under sterile conditions into 1–2 mm^3 pieces. […]
To examine the effects of ghrelin system components (4- and/or 24 h-incubation) on pituitary hormone release from primary pituitary adenoma and/or AtT-20 cell line, 100,000–200,000 cell/well were used. As previously reported, hormone concentrations were measured in the culture media derived from human samples according to the pituitary adenoma type using commercial ELISAs [growth hormone, GH; adrenocorticotropin, ACTH; and prolactin, PRL (reference numbers: EIA-3552, EIA-3647 and EIA-1291, respectively; DRG, Mountainside, NJ, USA)] following the manufacturer's instructions. […]
(ELISA stands for enzyme-linked immunosorbent assay.)

Assay [6] deals with GH-omas. The assay is described as follows: apoptotic rate in GH-omas. It is filed as cell-based, human. As to conditions: 100 nM, 12–14 h, Annexin V/Propidium Iodide, flow cytometry, n = 3. As to the method:
as §1

In assay [7] the test system is other endocrine cell types (e.g. pancreatic cells). Set-up: method as in PMID 17068144. As to conditions: cited from earlier work.
In assay [8] the test system is PRL-omas. The assay is described as follows: cell viability of PRL-oma primary cultures, peptide treatment. It is filed as cell-based, human. As to conditions: 100 nM, time not specified in text (24-, 48- and/or 72-h), alamar-blue, n = 2–3. As to the method: as §1, with “pipette.” for “pipette. Cells suspensions were washed once in 4.5 g/L glucose containing DMEM medium (Gibco, Madrid, Spain) supplemented with 0.1% BSA, 0.01% L-glutamine, 1% antibiotic-antimycotic solution, and 2.5% HEPES.”
as §2

Assay [9] relates to rat pituitary somatotrope cell lines. Set-up: method as in PMID 15296479. To be noted: cited from earlier work.

In the case of `CCCCCCCC(=O)OC[C@H](NC(=O)[C@H](CO)NC(=O)CN)C(=O)N[C@@H](Cc1ccccc1)C(=O)N[C@@H](CC(C)C)C(=O)N[C@@H](CO)C(=O)N1CCC[C@H]1C(=O)N[C@@H](CCC(=O)O)C(=O)N[C@@H](Cc1c[nH]cn1)C(=O)N[C@@H](CCC(N)=O)C(=O)N[C@@H](CCCNC(=N)N)C(=O)N[C@H](C(=O)N[C@@H](CCC(N)=O)C(=O)N[C@@H](CCC(N)=O)C(=O)N[C@@H](CCCNC(=N)N)C(=O)N[C@@H](CCCCN)C(=O)N[C@@H](CCC(=O)O)C(=O)N[C@@H](CO)C(=O)N[C@@H](CCCCN)C(=O)N[C@@H](CCCCN)C(=O)N1CCC[C@H]1C(=O)N1CCC[C@H]1C(=O)N[C@@H](C)C(=O)N[C@@H](CCCCN)C(=O)N[C@@H](CC(C)C)C(=O)N[C@@H](CCC(N)=O)C(=O)N1CCC[C@H]1C(=O)N[C@@H](CCCNC(=N)N)C(=O)O)C(C)C` [AG], the ACTH release entry in assay [1] is recorded as “able to elicit an effect on ACTH release”. In addition, the p-Akt levels result in assay [2] is “increased both, p-ERK1/2 as well as p-Akt, levels”. The cell viability result in assay [3] is reported as “increased cell viability”; in [4], “increased cell viability in vitro in all pituitary adenoma subtypes”; in [8] it was “significant increases”. Also, in assay [5], the ACTH secretion entry is “significantly increased ACTH secretion”. For the same compound, the apoptotic rate result is on record as “did not alter apoptotic rate” in assay [6] and “did not affect the apoptotic rate” in [7]. The cell proliferation entry in [9] is “can stimulate cell proliferation”.

These data come from article PMC4649711, “In1-ghrelin splicing variant is overexpressed in pituitary adenomas and increases their aggressive features” (Scientific Reports, 2015).
